Earlier results in patent US6700032B1, “Wound care management” (Leatherite Pty Limited, priority 1996, dated 2004).

Conditions: recommended concentrations

Question: With “2,4,4′-trichloro-2′-hydroxy diphenyl ether [Triclosan]” as the substance, how does the toxicological testing read?
Answer: Its toxicological testing is “safe at recommended concentrations”.
